Laboratory results taken from patent publication US20260166031A1, “Methods of Treating Lipedema and Lymphatic Disease of the Subcutaneous Tissue” (Celltaxis, LLC, priority 2023, published 2026).
Values after ≈ are worked out from the molar mass of the structure shown. “Also recorded” adds a separate entry of the source. Like-named read-outs stand apart in the source and are kept apart here.

Experiments:
[1] = molecular target: T1, LTA4H aminopeptidase activity (Homo sapiens, UniProt P09960)
T1 sequence (P09960 1-611): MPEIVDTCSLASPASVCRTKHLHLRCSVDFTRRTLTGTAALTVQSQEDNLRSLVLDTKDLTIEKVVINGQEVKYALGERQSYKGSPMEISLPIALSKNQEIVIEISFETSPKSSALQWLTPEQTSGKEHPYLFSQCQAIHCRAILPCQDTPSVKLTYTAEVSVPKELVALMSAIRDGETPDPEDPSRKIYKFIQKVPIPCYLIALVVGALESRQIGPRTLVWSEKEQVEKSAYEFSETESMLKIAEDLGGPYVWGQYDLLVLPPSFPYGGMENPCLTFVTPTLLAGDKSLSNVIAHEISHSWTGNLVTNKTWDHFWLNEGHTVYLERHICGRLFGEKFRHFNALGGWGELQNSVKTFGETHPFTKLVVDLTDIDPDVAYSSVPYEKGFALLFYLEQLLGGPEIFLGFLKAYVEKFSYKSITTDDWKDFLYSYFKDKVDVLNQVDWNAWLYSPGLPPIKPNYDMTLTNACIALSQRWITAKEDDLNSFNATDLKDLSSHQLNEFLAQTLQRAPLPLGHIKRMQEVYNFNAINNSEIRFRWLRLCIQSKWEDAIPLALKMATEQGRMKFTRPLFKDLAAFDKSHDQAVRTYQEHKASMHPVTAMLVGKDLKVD

[2] = molecular target: T2, LTA4H epoxide hydrolase activity (Homo sapiens, UniProt P09960); conditions: Table 3; read-out: Epoxide Hydrolase IC50 ± SEM; cited from earlier work
T2 sequence (P09960 1-611): T1 sequence (P09960 1-611)

[3] = tested on: LTB4 production in human whole blood; assay: Human whole blood ex vivo LTB4 production; format: cell-based; conditions: human whole blood tested ex vivo; read-out: approximate IC50, LTB4 production
Protocol: The hydrolase-homogeneous time resolved fluorescence assay is a two-step assay that measures the hydrolysis of LTA4 to LTB4 by analyzing the amount of LTB4 produced. The first step involves the enzymatic conversion of LTA4 to LTB4 and the second step involves the quantification of the LTB4 formed with a homogeneous time resolved fluorescence assay. […] In the whole blood assay, the inhibitor compounds are tested for their ability to inhibit LTB4 release upon stimulation with calcium ionophore and the LTB4 levels in supernatants are measured by ELISA.

[4] = tested on: affected (lymphedematous) limb of lymphedema patients; assay: Expanded access program, skin thickness of affected limb by caliper; format: in vivo, human; conditions: p<0.0001
Protocol: Skin thickness was measured by caliper.
At 6 months, a 43% reduction in skin thickness was observed (mean for 10 patients; p<0.0001).

[5] = tested on: LTB4 production; assay: Pharmacodynamic studies in humans, LTB4 production/inhibition; format: in vivo, human
[6] = tested on: sputum white blood cells and neutrophils of CF patients; assay: Sputum cell counts in CF patients
[7] = tested on: affected limb of lymphedema patients; assay: Expanded access program, limb volume; format: in vivo, human; conditions: 6 months; mean for 6 patients; p<0.03
Text: At 6 months, a 6.7% reduction in limb volume was observed (mean for 6 patients; p<0.03).

[8] = tested on: lymphedema patients; assay: Expanded access program, dermal ultrasound; format: in vivo, human
[9] = tested on: adult patients with CF; conditions: 48 weeks of treatment; Phase II adult CF patients; cited from earlier work
[10] = tested on: lymphedema patients; assay: Expanded access program, LymVAS quality of life; format: in vivo, human; conditions: as early as 3 months, maintained at 6 months; 11 EAP patients
Protocol: Quality of life indicators were also evaluated in the 11 EAP patients using LymVAS, a tool to interrogate lymphedema patient experience and is based on experience and practice from prior lymphedema trials. LymVAS uses a sliding visual analog scale, wherein patients move the slider along a line to indicate the degree of response to a question. LymVAS has two segments: 1.

[11] = tested on: upper limb lymphedema patient; assay: HEAL Phase 2 trial case report, dermal ultrasound of forearm; format: in vivo, human; conditions: Stage II lymphedema subject
Text: We present the early ultrasonographic responses of a participant who has completed 3 months of a total 6-month exposure. The primary endpoint for this trial involves quantitative analysis of dermal ultrasound skin changes.
These preliminary results lend great promise to the HEAL trial.

[12] = tested on: neutrophil swarming; assay: Neutrophil swarming in vitro in response to factors in human CF sputum; conditions: acebilustat 48 ng/mL, factors present in human CF sputum
[13] = tested on: affected limb of lymphedema patients; assay: Expanded access program, bioimpedance of affected limb; format: in vivo, human; conditions: 6 months vs baseline; p<0.01; higher bioimpedance = lower water content
Text: Bioimpedance is a measure of water content, and a higher bioimpedance corresponds to a lower water content.
FIGS. 5A, 5B and 5C are graphs presenting the same data as change in bioimpedance (as compared to baseline) over time.

[14] = molecular target: T3, LTA4H (Homo sapiens, UniProt P09960); conditions: cited from earlier work
T3 sequence (P09960 1-611): T1 sequence (P09960 1-611)

[15] = Table 2; read-out: Aminopeptidase IC50 ± SEM; cited from earlier work
[16] = Table 3; read-out: Aminopeptidase IC50 ± SEM; cited from earlier work
[17] = patient with right leg lymphedema, at 6 months
[18] = 3 months of treatment vs baseline
[19] = 3 months of treatment vs baseline, listed as Acebilustat

COc1cc(O)cc(CCc2ccc(O)cc2)c1 [Cmpd 6]
IC50 [1, 15]: > 100 µM

CCOc1cc(O)cc(CCc2ccc(O)cc2)c1 [Cmpd 7]
IC50 [1, 15]: > 100 µM

O=c1c(-c2ccc(O)cc2)coc2c(O)c(O)ccc12 [Cmpd 12]
IC50 [2]: 7.3 ± 0.8 µM

COc1cc(O)cc(CCc2ccccc2O)c1 [Cmpd 9]
IC50 [1, 15]: > 100 µM

O=C(Cc1ccc(O)cc1)c1ccc(O)cc1O [Cmpd 10]
IC50 [1, 16]: > 100 µM

O=C(O)c1ccc(CN2C[C@@H]3C[C@H]2CN3Cc2ccc(Oc3ccc(-c4ncco4)cc3)cc2)cc1 [acebilustat, 4-{[(1S,4S)-5-({4-[4-oxazol-2-yl-phenoxy]phenyl}methyl)-2,5-diazabicyclo[2.2.1]heptan-2-yl]methyl}benzoic acid]
IC50 [3]: ~0.0308 µg/mL (≈ 0.064 µM) | skin thickness of affected limb ([4]; 3 months after acebilustat treatment vs baseline, caliper): dramatically reduced; also recorded: significant decrease | reduction in skin thickness ([4]; 6 months vs baseline, mean for 10 patients): 43% | inhibition at 50 mg ([5]; 50 mg dose, human pharmacodynamic studies): ≥ 63% | inhibition at 100 mg ([5]; 100 mg dose, human pharmacodynamic studies): ≥ 74% | inhibition at 150 mg ([5]; 150 mg dose, human pharmacodynamic studies): ≥ 82% | LTB4 inhibition ([5]; 200 mg, human pharmacodynamic studies): at least 85% | EC50 ([5]; Homo sapiens, pharmacodynamic studies in humans, read-out: estimated in vivo EC50, inhibition of LTB4 production): 0.093 µg/mL (≈ 0.193 µM) | decrease of sputum white blood cells from Baseline ([6]; 100 mg acebilustat group): 60% | decrease of sputum neutrophils ([6]; 100 mg group): 65% | decrease of sputum neutrophils ([6]; all treated patients (doses of 50 to 100 mg)): 34% | decrease of sputum white blood cells from Baseline ([6]; all treated subjects (doses of 50 or 100 mg)): 31% | reduction in limb volume [7]: 6.7% | reduction in subcutaneous thickness ([8]; different patient (FIG. 7), after 6 months of treatment): 15.2% | reduction of dermal thickness [8, 17]: 3.7% | reduction of subdermal thickness [8, 17]: over 20.2% | reduction of total thickness [8, 17]: 17.6% | rate of pulmonary exacerbations [9]: showed promise in reducing the rate of pulmonary exacerbations | risk of infection [9]: no evidence of increased risk of infection | LymVAS Total Change Score [10]: significant improvement | LymVAS quality of life Total Status Score [10]: significant improvement | demarcation of dermo-epidermal junction and subcutaneous fascial bands ([11]; 3 months of treatment): enhanced demarcation | dermal echogenicity by ultrasound [11, 18]: reduced echogenicity | dermal thickness by ultrasound [11, 18]: reduced dermal thickness | subcutaneous tissue echogenicity [11, 18]: decreased | dermal thickness by ultrasound [11, 19]: reduced | subcutaneous tissue echogenicity [11, 19]: reduced | reduction of neutrophil swarming [12]: 80% | bioimpedance (water content) of affected limb [13]: significantly lower water content; also recorded: significantly higher bioimpedance

COc1cc(O)cc(CCc2cccc(O)c2)c1 [Cmpd 8]
IC50 [1, 15]: > 100 µM

CC(=O)Oc1ccc(/C=C/c2cc(OC(C)=O)cc(OC(C)=O)c2)cc1 [Cmpd 4]
IC50 ([1]; Table 1; read-out: Aminopeptidase IC50 ± SEM; cited from earlier work): > 100 µM

O=c1c(-c2ccccc2)coc2cc(O)ccc12 [Cmpd 13]
IC50 [1, 16]: > 100 µM

CC(C)C[C@H](NC(=O)[C@@H](O)[C@H](N)Cc1ccccc1)C(=O)O [Ubenimex]
potency at inhibiting LTB4 generation versus PGP degradation (selectivity class) [14]: non-selective LTA4H inhibitor

O=c1c(-c2ccc(O)cc2)coc2cc(O)ccc12 [Cmpd 11]
IC50 ([1]; read-out: Aminopeptidase IC50 ± SEM; Table 3; cited from earlier work): > 100 µM
